5 compounds from patent publication US9856242B2, “5-fluoro-N-(pyridin-2-yl)pyridin-2-amine derivatives containing a sulfone group” (Bayer Pharma Aktiengesellschaft, priority 2014, dated 2018) can be followed below.

Structures are written as SMILES.

The target in one assay is T1, CDK9/CycT1 (Homo sapiens, UniProt P50750).
T1 construct: Recombinant full-length His-tagged human CDK9 and CycT1; His; purchased Invitrogen PV4131; host or cells: insect cells
Kind of assay: CDK9/CycT1 kinase assay (Method 1a, TR-FRET, 10 μM ATP). It counts as biochemical. The settings on record: for IC50: Method 1a, 10 μM ATP; for Selectivity CDK9/CDK2: according to Methods 1a and 2a (ratio of CDK2 IC50 to CDK9 IC50). The text has this: 1a. CDK9/CycT1 Kinase Assay:
CDK9/CycT1-inhibitory activity of compounds of the present invention was quantified employing the CDK9/CycT1 TR-FRET assay as described in the following paragraphs:
Recombinant full-length His-tagged human CDK9 and CycT1, expressed in insect cells and purified by Ni-NTA affinity chromatography, were purchased from Invitrogen (Cat. No PV4131). As substrate for the kinase reaction biotinylated peptide biotin-Ttds-YISPLKSPYKISEG (C-terminus in amid form) was used which can be purchased e.g. form the company JERINI Peptide Technologies (Berlin, Germany). For the assay 50 n1 of a 100 fold concentrated solution of the test compound in DMSO was pipetted into a black low volume 384 well microtiter plate (Greiner Bio-One, Frickenhausen, Germany), 2 μl of a solution of CDK9/CycT1 in aqueous assay buffer [50 mM Tris/HCl pH 8.0, 10 mM MgCl2, 1.0 mM dithiothreitol, 0.1 mM sodium ortho-vanadate, 0.01% (v/v) Nonidet-P40 (Sigma)] were added and the mixture was incubated for 15 min at 22° C. to allow pre-binding of the test compounds to the enzyme before the start of the kinase reaction. Then the kinase reaction was started by the addition of 3 μl of a solution of adenosine-tri-phosphate (ATP, 16.7 μM=>final conc. in the 5 μl assay volume is 10 μM) and substrate (1.67 μM=>final conc. in the 5 μl assay volume is 1 μM) in assay buffer and the resulting mixture was incubated for a reaction time of 25 min at 22° C. The concentration of CDK9/CycT1 was adjusted depending of the activity of the enzyme lot and was chosen appropriate to have the assay in the linear range, typical concentrations were in the range of 1 μg/mL. The reaction was stopped by the addition of 5 μl of a solution of TR-FRET detection reagents (0.2 μM streptavidine-XL665 [Cisbio Bioassays, Codolet, France] and 1 nM anti-RB(pSer807/pSer811)-antibody from BD Pharmingen [#558389] and 1.2 nM LANCE EU-W1024 labeled anti-mouse IgG antibody [Perkin-Elmer, product no. AD0077]) in an aqueous EDTA-solution (100 mM EDTA, 0.2% (w/v) bovine serum albumin in 100 mM HEPES/NaOH pH 7.0).
The resulting mixture was incubated 1 h at 22° C. to allow the formation of complex between the phosphorylated biotinylated peptide and the detection reagents. Subsequently the amount of phosphorylated substrate was evaluated by measurement of the resonance energy transfer from the Eu-chelate to the streptavidine-XL. Therefore, the fluorescence emissions at 620 nm and 665 nm after excitation at 350 nm was measured in a HTRF reader, e.g. a Rubystar (BMG Labtechnologies, Offenburg, Germany) or a Viewlux (Perkin-Elmer). The ratio of the emissions at 665 nm and at […] was taken as the measure for the amount of phosphorylated substrate. The data were normalised (enzyme reaction without inhibitor=0% inhibition, all other assay components but no enzyme=100% inhibition).
(In general: In TR-FRET formats the signal depends on donor and acceptor labels being close together.)

In the next assay the test system is DU145 cells. Put plainly: Proliferation assay (Method 3), DU145. The conditions noted are these: DU-145, 96 h; hormone-independent human prostate carcinoma, 4 days, crystal violet; read-out: Inhibition of DU145 cell proliferation IC50. It is filed as cell-based. On the procedure: (§1) Cultivated tumour cells (HeLa, human cervical tumour cells, ATCC CCL-2; NCI-H460, human non-small cell lung carcinoma cells, ATCC HTB-177; A2780, human ovarian carcinoma cells, ECACC #93112519; DU 145, hormone-independent human prostate carcinoma cells, ATCC HTB-81; HeLa-MaTu-ADR, multidrug-resistant human cervical carcinoma cells, EPO-GmbH Berlin; Caco-2, human colorectal carcinoma cells, ATCC HTB-37; B16F10, mouse melanoma cells, ATCC CRL-6475) were plated at a density of 5,000 cells/well (DU145, HeLa-MaTu-ADR), 3,000 cells/well (NCI-H460, HeLa), 2,500 cells/well (A2780), 1,500 cells/well (Caco-2), or 1,000 cells/well (B16F10) in a 96-well multititer plate in 200 μL of their respective growth medium supplemented 10% fetal calf serum. After 24 hours, the cells of one plate (zero-point plate) were stained with crystal violet (see below), while the medium of the other plates was replaced by fresh culture medium (200 μl), to which the test substances were added in various concentrations (0 μM, as well as in the range of 0.001-10 μM; the final concentration of the solvent dimethyl sulfoxide was 0.5%). The cells were incubated for 4 days in the presence of test substances. Cell proliferation was determined by staining the cells with crystal violet: the cells were fixed by adding 20 μl/measuring point of an 11% glutaric aldehyde solution for 15 minutes at room temperature. After three washing cycles of the fixed cells with water, the plates were dried at room temperature. The cells were stained by adding 100 μl/measuring point of a 0.1% crystal violet solution (pH 3.0). After three washing cycles of the stained cells with water, the plates were dried at room temperature. The dye was dissolved by adding 100 μl/measuring point of a 10% acetic acid solution. The extinction was determined by photometry at a wavelength of 595 nm. The change of cell number, in percent, was calculated by normalization of the measured values to the extinction values of the zero-point plate (=0%) and the extinction of the untreated (0 μm) cells (=100%). The IC50 values (inhibitory concentration at 50% of maximal effect) were determined by means of a 4 parameter fit.

In another assay the test system is B16F10 cells. Put plainly: Proliferation assay (Method 3), B16F10. It counts as cell-based. The settings on record: B16-F10, 96 h; mouse melanoma, 4 days, crystal violet; read-out: Inhibition of B16F10 cell proliferation IC50. On the procedure: as §1
The subject of a further assay is HeLa cells. Put plainly: Proliferation assay (Method 3), HeLa. The conditions noted are these: 96 h, human cervical tumour, 4 days, crystal violet, read-out: Inhibition of HeLa cell proliferation IC50. It is filed as cell-based. As to the method: as §1
The test system of the next assay is Caco-2 cells. Put plainly: Proliferation assay (Method 3), Caco-2. It is filed as cell-based. The settings on record: Caco-2, 96 h; human colorectal carcinoma, 4 days, crystal violet; read-out: Inhibition of Caco-2 cell proliferation IC50. As to the method:
as §1

The test system of a further assay is NCI-H460 cells. Kind of assay: Proliferation assay (Method 3), NCI-H460. It is filed as cell-based. The conditions noted are these: NCI-H460, 96 h; human non-small cell lung carcinoma, 4 days, crystal violet; read-out: Inhibition of NCI-H460 cell proliferation IC50. As to the method: as §1
In another assay the test system is HeLa-MaTu-ADR cells. Put plainly: Proliferation assay (Method 3), HeLa-MaTu-ADR. It counts as cell-based. The settings on record: 96 h; multidrug-resistant human cervical carcinoma, 4 days, crystal violet; read-out: Inhibition of HeLa-MaTu-ADR cell proliferation IC50. On the procedure: as §1

T1 sequence (P50750 whole entry): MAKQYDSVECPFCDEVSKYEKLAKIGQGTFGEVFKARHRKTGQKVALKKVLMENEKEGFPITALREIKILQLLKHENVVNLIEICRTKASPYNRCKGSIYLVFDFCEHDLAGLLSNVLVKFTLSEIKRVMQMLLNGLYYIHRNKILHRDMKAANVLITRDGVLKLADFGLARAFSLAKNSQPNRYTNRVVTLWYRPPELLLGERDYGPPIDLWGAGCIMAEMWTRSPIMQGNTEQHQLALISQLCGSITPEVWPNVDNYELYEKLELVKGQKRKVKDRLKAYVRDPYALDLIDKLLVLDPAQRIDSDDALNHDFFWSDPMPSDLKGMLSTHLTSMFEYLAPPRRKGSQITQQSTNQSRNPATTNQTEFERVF
T1 sequence (O60563 whole entry partner): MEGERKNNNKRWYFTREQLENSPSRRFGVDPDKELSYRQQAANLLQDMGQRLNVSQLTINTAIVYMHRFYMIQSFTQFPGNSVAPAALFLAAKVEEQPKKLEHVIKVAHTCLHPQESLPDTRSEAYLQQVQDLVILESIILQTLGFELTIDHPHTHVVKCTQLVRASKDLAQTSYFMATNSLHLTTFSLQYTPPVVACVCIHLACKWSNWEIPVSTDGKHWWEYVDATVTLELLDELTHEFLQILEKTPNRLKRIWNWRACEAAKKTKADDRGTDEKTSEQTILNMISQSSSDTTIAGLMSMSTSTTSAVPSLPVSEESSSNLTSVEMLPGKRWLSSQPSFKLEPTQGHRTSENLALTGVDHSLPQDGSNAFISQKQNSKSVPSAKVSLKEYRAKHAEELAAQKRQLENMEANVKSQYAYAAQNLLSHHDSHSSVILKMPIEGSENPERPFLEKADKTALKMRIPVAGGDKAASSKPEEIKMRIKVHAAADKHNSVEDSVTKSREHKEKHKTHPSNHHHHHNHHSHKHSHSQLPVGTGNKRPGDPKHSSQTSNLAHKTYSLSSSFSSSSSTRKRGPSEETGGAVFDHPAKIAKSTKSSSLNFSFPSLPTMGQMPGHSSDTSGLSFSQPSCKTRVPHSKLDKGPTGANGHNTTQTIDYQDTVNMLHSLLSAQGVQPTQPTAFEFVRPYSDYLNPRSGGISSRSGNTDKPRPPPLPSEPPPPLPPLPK

For `CS(=O)(=O)Cc1ccnc(Nc2cc(-c3ccc(F)c4ccoc34)c(F)cn2)c1` [Example 1, 5-Fluoro-4-(4-fluoro-1-benzofuran-7-yl)-N-{4-[(methylsulfonyl)methyl]pyridin-2-yl}pyridin-2-amine], the IC50 on CDK9/CycT1 is 0.003 µM; with DU145 cells, 0.034 µM; in the assay on B16F10 cells, 0.07 µM; in the assay on HeLa cells, 0.006 µM; with Caco-2 cells, 0.04 µM; in the assay with NCI-H460 cells, 0.037 µM. Besides, the IC50 with HeLa-MaTu-ADR cells amounted to 0.036 µM. Moreover, the “Selectivity CDK9/CDK2” value at CDK9/CycT1 amounted to 29.

In the case of `CS(=O)(=O)Cc1cc(F)nc(Nc2cc(-c3ccc(F)c4ccoc34)c(F)cn2)c1` [Example 2, 5-Fluoro-4-(4-fluoro-1-benzofuran-7-yl)-N-{6-fluoro-4-[(methylsulfonyl)methyl]pyridin-2-yl}pyridin-2-amine], the IC50 on CDK9/CycT1 stood at 0.004 µM; in the assay with DU145 cells, 0.036 µM; with B16F10 cells it was 0.059 µM; in the assay with HeLa cells it was 0.04 µM; in the assay with Caco-2 cells, 0.037 µM; in the assay on NCI-H460 cells it was 0.048 µM. Also, the IC50 with HeLa-MaTu-ADR cells amounted to 0.024 µM. Also, on CDK9/CycT1, the “Selectivity CDK9/CDK2” value was 18.

For `Cc1cc(CS(C)(=O)=O)cc(Nc2cc(-c3ccc(F)c4ccoc34)c(F)cn2)n1` [Example 3, 5-Fluoro-4-(4-fluoro-1-benzofuran-7-yl)-N-{6-methyl-4-[(methylsulfonyl)methyl]pyridin-2-yl}pyridin-2-amine], the IC50 in the assay on DU145 cells came out at 0.024 µM; with B16F10 cells, 0.032 µM; with HeLa cells, 0.012 µM; with Caco-2 cells it was 0.012 µM; in the assay with NCI-H460 cells, 0.019 µM; in the assay on HeLa-MaTu-ADR cells, 0.018 µM.

As for `CS(=O)(=O)Cc1cc(Nc2cc(-c3ccc(F)c4ccoc34)c(F)cn2)nc(C(F)(F)F)c1` [Example 4, 5-Fluoro-4-(4-fluoro-1-benzofuran-7-yl)-N-{4-[(methylsulfonyl)methyl]-6-(trifluoromethyl)pyridin-2-yl}pyridin-2-amine], the IC50 turned out to be 0.03 µM in the assay on DU145 cells; 0.031 µM in the assay with B16F10 cells; 0.013 µM with HeLa cells; 0.014 µM in the assay on Caco-2 cells; 0.033 µM in the assay on NCI-H460 cells; 0.023 µM with HeLa-MaTu-ADR cells.

`CS(=O)(=O)Cc1ccnc(Nc2cc(-c3cccc4ccoc34)c(F)cn2)c1` [Example 5, 4-(1-Benzofuran-7-yl)-5-fluoro-N-{4-[(methylsulfonyl)methyl]pyridin-2-yl}pyridin-2-amine]: the IC50 on CDK9/CycT1 was found to be 0.004 µM; in the assay on DU145 cells it was 0.058 µM; with B16F10 cells, 0.12 µM; in the assay with HeLa cells, 0.068 µM; in the assay with Caco-2 cells, 0.061 µM; with NCI-H460 cells it was 0.091 µM. Further, in the assay on HeLa-MaTu-ADR cells, the IC50 stood at 0.068 µM. Besides, the “Selectivity CDK9/CDK2” value on CDK9/CycT1 amounted to 17.
